Measurements reported in ChEMBL document CHEMBL1137250, “Novel 6-O-acylated vitamin C derivatives as hyaluronidase inhibitors with selectivity for bacterial lyases” (Bioorg Med Chem Lett, 2006).
The source made the active and inactive calls. No cut-off for these calls is given here.

Experiments:
Bos taurus [1] = organism: Bos taurus; experiment: (§1) Inhibition of bovine hyaluronidase at pH 5.0
[2] = Inhibition of Streptococcus agalactiae 4755 hyaluronidase at pH 5.0
Bos taurus [3] = organism: Bos taurus; experiment: Inhibition of bovine hyaluronidase up to 100 mM at pH 5.0
[4] = Inhibition of Streptococcus pneumoniae hyaluronidase
[5] = as §1; set-up: species or system Bos taurus
Bos taurus [6] = organism: Bos taurus; experiment: Inhibition of bovine hyaluronidase up to 13 mM at pH 5.0
Streptococcus agalactiae [7] = experiment: Inhibition of Streptococcus agalactiae 4755 hyaluronidase upto 13 mM at pH 5.0
Streptococcus agalactiae [8] = experiment: Inhibition of Streptococcus agalactiae 4755 hyaluronidase at 1100 uM at pH 5.0
Bos taurus [9] = organism: Bos taurus; experiment: Inhibition of bovine hyaluronidase up to 1.1 mM at pH 5.0
Streptococcus agalactiae [10] = experiment: Inhibition of Streptococcus agalactiae 4755 hyaluronidase at 190 uM at pH 5.0
Bos taurus [11] = organism: Bos taurus; experiment: Inhibition of bovine hyaluronidase up to 200 uM at pH 5.0
Streptococcus agalactiae [12] = experiment: Inhibition of Streptococcus agalactiae 4755 hyaluronidase at 160 uM at pH 5.0
Streptococcus agalactiae [13] = experiment: Inhibition of Streptococcus agalactiae 4755 hyaluronidase at 2000 uM at pH 5.0
Bos taurus [14] = organism: Bos taurus; experiment: Inhibition of bovine hyaluronidase at 1430 uM
Streptococcus agalactiae [15] = experiment: Inhibition of Streptococcus agalactiae 4755 hyaluronidase upto 200 uM at pH 5.0

IC50 [2] [µM] | IC50 [5] [µM] | Structure (SMILES) | other results
437 | – | O=C(CCCCCOCc1ccccc1)OC[C@H](O)[C@H]1OC(=O)C(O)=C1O | Activity (Bos taurus [1]): inactive
6100 | – | O=C1O[C@H]([C@@H](O)CO)C(O)=C1O [ASCORBIC ACID] | Activity (Bos taurus [3]): inactive; IC50 [4]: 5800 µM
717 | – | O=C(CCCCCOc1ccccc1)OC[C@H](O)[C@H]1OC(=O)C(O)=C1O | Activity (Bos taurus [1]): inactive
8.4 | 71 | CCCCCCCCCCCCCC(=O)OC[C@H](O)[C@H]1OC(=O)C(O)=C1O | –
– | – | COC1=C(OC)[C@@H]([C@@H](O)CO)OC1=O | Activity (Bos taurus [6]): inactive; Activity (Streptococcus agalactiae [7]): inactive
102 | 1380 | CCCCCCCCCC(=O)OC[C@H](O)[C@H]1OC(=O)C(O)=C1O | –
– | – | CC(C)(C)C(=O)OC[C@H](O)[C@H]1OC(=O)C(O)=C1O | inhibition (Streptococcus agalactiae [8]): 43%; Activity (Bos taurus [9]): inactive
7.5 | 37 | O=C(CCCCCCCCCCOc1ccc(-c2ccccc2)cc1)OC[C@H](O)[C@H]1OC(=O)C(O)=C1O | –
772 | – | CCCCCCCC(=O)OC[C@H](O)[C@H]1OC(=O)C(O)=C1O | Activity (Bos taurus [1]): inactive
4.2 | 57 | CCCCCCCCCCCCCCCC(=O)OC[C@H](O)[C@H]1OC(=O)C(O)=C1O [ASCORBYL PALMITATE] | –
– | – | CCCCCCCCCCCCCCCC(=O)OC[C@H](O)[C@H]1OC(=O)C2=C1OCCO2 | inhibition (Streptococcus agalactiae [10]): 32%; Activity (Bos taurus [11]): inactive
14.3 | 96 | CCCCCCCCCCCCC(=O)OC[C@H](O)[C@H]1OC(=O)C(O)=C1O | –
358 | 2010 | O=C(Cc1ccc(-c2ccccc2)cc1)OC[C@H](O)[C@H]1OC(=O)C(O)=C1O | –
102 | 543 | O=C(CCCCCOCc1ccc(-c2ccccc2)cc1)OC[C@H](O)[C@H]1OC(=O)C(O)=C1O | –
72 | 580 | CCCCCCCCCCC(=O)OC[C@H](O)[C@H]1OC(=O)C(O)=C1O | –
61 | 188 | O=C(CCCCCOc1ccc(-c2ccccc2)cc1)OC[C@H](O)[C@H]1OC(=O)C(O)=C1O | –
– | – | CCCCCCCCCCCCCCCC(=O)OC[C@H](O)[C@H]1OC(=O)C(OC)=C1OC | inhibition (Streptococcus agalactiae [12]): 5%; Activity (Bos taurus [11]): inactive
76 | 210 | O=C(CCCCCOc1ccc(OCc2ccccc2)cc1)OC[C@H](O)[C@H]1OC(=O)C(O)=C1O | –
0.9 | 39 | CCCCCCCCCCCCCCCCCC(=O)OC[C@H](O)[C@H]1OC(=O)C(O)=C1O [ASCORBYL STEARATE] | –
– | – | O=C1O[C@H]([C@@H](O)CO)C2=C1OCCO2 | Activity (Bos taurus [6]): inactive; inhibition (Streptococcus agalactiae [13]): 24%
132 | – | O=C1O[C@H]([C@@H](O)COC(=O)c2ccccc2)C(O)=C1O | inhibition (Bos taurus [14]): 33%
– | – | CCCCCCCCCCCCCCCC(=O)OC[C@H](O)[C@H]1OC(=O)C(OCc2ccccc2)=C1OCc1ccccc1 | Activity (Streptococcus agalactiae [15]): inactive; Activity (Bos taurus [11]): inactive
47 | 208 | CCCCCCCCCCCC(=O)OC[C@H](O)[C@H]1OC(=O)C(O)=C1O | –
355 | – | O=C1O[C@H]([C@@H](O)CO)C(OCc2ccccc2)=C1OCc1ccccc1 | Activity (Bos taurus [6]): inactive
280 | – | CCc1ccc(OCCCCCC(=O)OC[C@H](O)[C@H]2OC(=O)C(O)=C2O)cc1 | Activity (Bos taurus [1]): inactive
31 | 105 | O=C(CCCCCCCCCCOc1ccccc1)OC[C@H](O)[C@H]1OC(=O)C(O)=C1O | –
475 | – | CCCCCC(=O)OC[C@H](O)[C@H]1OC(=O)C(O)=C1O | Activity (Bos taurus [1]): inactive
